Laboratory results as given in ChEMBL document CHEMBL4376834, “Discovery of 4H-Chromen-4-one Derivatives as a New Class of Selective Rho Kinase (ROCK) Inhibitors, which Showed Potent Activity in ex Vivo Diabetic Retinopathy Models” (J Med Chem, 2019).

How the values were obtained:
[1] = biological target: Tyrosine-protein kinase ABL1 (Homo sapiens, UniProt P00519, T315I); experiment: Inhibition of human recombinant ABL1 T315I mutant (27 to end residues) using EAIYAAPFAKKK as substrate incubated for 40 mins in presence of [gamma-33P]ATP by radiometric scintillation counting analysis
[2] = biological target: Calcium/calmodulin-dependent protein kinase type 1D (Homo sapiens, UniProt Q8IU85); experiment: Inhibition of recombinant full length human CaMK1delta using calmodulin as substrate incubated for 40 mins in presence of [gamma-33ATP] by radiometric scintillation counting analysis
Calcium/calmodulin-dependent protein kinase type 1D, sequence (Q8IU85 whole entry): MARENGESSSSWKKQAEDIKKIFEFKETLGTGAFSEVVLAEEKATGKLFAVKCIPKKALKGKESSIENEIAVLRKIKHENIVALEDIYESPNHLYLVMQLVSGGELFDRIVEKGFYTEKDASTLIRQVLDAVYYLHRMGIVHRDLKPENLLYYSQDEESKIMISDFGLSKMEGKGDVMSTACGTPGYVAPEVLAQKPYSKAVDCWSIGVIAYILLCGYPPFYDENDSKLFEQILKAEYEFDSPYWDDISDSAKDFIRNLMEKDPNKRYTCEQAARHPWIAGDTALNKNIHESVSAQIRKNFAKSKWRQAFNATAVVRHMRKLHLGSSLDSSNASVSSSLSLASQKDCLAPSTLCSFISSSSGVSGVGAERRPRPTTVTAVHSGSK

[3] = biological target: Dual specificity protein kinase CLK2 (Homo sapiens, UniProt P49760); experiment: Inhibition of recombinant human CLK2 (138 to end residues) using YRRAAVPPSPSLSR as substrate incubated 40 mins in presence of [gamma-33ATP] by radiometric scintillation counting analysis
Dual specificity protein kinase CLK2, sequence (P49760 whole entry): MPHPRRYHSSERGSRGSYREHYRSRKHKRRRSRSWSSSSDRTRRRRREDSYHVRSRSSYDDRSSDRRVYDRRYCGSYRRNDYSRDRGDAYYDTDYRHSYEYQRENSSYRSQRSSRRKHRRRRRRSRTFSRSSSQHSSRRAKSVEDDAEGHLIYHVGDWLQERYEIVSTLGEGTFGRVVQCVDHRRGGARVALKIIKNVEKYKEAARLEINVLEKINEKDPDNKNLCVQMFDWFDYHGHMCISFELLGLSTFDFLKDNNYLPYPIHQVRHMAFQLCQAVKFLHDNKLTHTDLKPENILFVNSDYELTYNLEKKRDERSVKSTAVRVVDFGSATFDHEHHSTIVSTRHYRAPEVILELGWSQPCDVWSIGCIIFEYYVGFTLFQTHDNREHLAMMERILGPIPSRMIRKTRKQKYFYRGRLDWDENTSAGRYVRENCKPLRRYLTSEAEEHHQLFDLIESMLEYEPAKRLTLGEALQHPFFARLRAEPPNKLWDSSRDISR

[4] = biological target: Eukaryotic elongation factor 2 kinase (Homo sapiens, UniProt O00418, H23R); experiment: Inhibition of recombinant human eEF2K H23R mutant (2 to end residues) using RKKFGESEKTKTK as substrate after 40 mins in presence of [gamma-33ATP] by radiometric scintillation counting analysis
[5] = biological target: Serine/threonine-protein kinase Nek3 (Homo sapiens, UniProt P51956); experiment: Inhibition of recombinant full-length human NEK3 using myelin basic protein as substrate measured after 40 mins in presence of [gamma33P]ATP by radiometric scintillation counting analysis
[6] = biological target: Serine/threonine-protein kinase NIM1 (Homo sapiens, UniProt Q8IY84); experiment: Inhibition of recombinant full length human NIM1 using KKKVSRSGLYRSP as substrate measured after 40 mins in presence of [gamma33P]ATP by radiometric scintillation counting analysis
Serine/threonine-protein kinase NIM1, sequence (Q8IY84 whole entry): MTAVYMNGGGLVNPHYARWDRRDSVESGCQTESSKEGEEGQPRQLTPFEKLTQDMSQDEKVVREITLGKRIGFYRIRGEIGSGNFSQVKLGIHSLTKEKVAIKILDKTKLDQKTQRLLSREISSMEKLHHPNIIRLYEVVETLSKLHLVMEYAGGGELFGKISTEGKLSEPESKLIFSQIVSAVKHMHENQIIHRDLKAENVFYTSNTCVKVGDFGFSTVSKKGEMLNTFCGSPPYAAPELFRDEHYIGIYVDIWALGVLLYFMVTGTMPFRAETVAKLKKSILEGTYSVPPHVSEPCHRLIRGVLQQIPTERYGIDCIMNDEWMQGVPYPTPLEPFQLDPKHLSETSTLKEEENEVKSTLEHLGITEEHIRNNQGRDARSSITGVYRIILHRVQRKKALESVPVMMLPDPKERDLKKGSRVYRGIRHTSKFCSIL

FKBP12A/mTOR = FKBP12A/mTOR (Homo sapiens, UniProt P42345+P62942); experiment: Inhibition of recombinant full length human mTOR/FKBP12 measured after 40 mins in presence of [gamma33P]ATP by radiometric scintillation counting analysis; assay type: protein-complex assay
FKBP12A/mTOR, sequence (P62942 2-108 limits assumed, other chains not shown): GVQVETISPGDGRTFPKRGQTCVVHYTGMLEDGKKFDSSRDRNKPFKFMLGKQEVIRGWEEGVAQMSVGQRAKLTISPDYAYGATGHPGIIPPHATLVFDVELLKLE

[7] = biological target: Hepatocyte growth factor receptor (Homo sapiens, UniProt P08581, Y1230H); experiment: Inhibition of recombinant human MET A1209G/V1290L/Y1248H triple mutant (974 to end residues) using KKKGQEEEYVFIE as substrate incubated for 40 mins in presence of [gamma-33ATP by radiometric scintillation counting analysis
[8] = biological target: Hepatocyte growth factor receptor (Homo sapiens, UniProt P08581, M1250T); experiment: Inhibition of recombinant human MET A1209G/V1290L/M1268T triple mutant (974 to end residues) using KKKGQEEEYVFIE as substrate incubated for 40 mins in presence of [gamma-33ATP by radiometric scintillation counting analysis
[9] = biological target: Serine/threonine-protein kinase pim-1 (Homo sapiens, UniProt P11309); experiment: Inhibition of recombinant full length human Pim1 using KKRNRTLTV as substrate incubated for 40 mins in presence of [gamma33P]ATP by radiometric scintillation counting analysis
[10] = Inhibition of recombinant human PAK2 L150F/P225T/A339 deletion/V383I mutant (3 to end residues) using KEAKEKRQEQIAKR as substrate incubated for 40 mins in presence of [gamma33P]ATP by radiometric scintillation counting analysis
[11] = biological target: Tyrosine-protein kinase Fer (Homo sapiens, UniProt P16591); experiment: Inhibition of recombinant human FER (541 to end residues) using KKKSPGEYVNIEF as substrate after 40 mins in presence of [gamma-33ATP] by radiometric scintillation counting analysis
[12] = biological target: Fibroblast growth factor receptor 3 (Homo sapiens, UniProt P22607); experiment: Inhibition of recombinant human FGFR3 (447 to 761 residues) using poly(Glu, Tyr) 4:1 as substrate after 40 mins in presence of [gamma-33ATP] by radiometric scintillation counting analysis
Fibroblast growth factor receptor 3, sequence (P22607 whole entry, the tested form may be a part): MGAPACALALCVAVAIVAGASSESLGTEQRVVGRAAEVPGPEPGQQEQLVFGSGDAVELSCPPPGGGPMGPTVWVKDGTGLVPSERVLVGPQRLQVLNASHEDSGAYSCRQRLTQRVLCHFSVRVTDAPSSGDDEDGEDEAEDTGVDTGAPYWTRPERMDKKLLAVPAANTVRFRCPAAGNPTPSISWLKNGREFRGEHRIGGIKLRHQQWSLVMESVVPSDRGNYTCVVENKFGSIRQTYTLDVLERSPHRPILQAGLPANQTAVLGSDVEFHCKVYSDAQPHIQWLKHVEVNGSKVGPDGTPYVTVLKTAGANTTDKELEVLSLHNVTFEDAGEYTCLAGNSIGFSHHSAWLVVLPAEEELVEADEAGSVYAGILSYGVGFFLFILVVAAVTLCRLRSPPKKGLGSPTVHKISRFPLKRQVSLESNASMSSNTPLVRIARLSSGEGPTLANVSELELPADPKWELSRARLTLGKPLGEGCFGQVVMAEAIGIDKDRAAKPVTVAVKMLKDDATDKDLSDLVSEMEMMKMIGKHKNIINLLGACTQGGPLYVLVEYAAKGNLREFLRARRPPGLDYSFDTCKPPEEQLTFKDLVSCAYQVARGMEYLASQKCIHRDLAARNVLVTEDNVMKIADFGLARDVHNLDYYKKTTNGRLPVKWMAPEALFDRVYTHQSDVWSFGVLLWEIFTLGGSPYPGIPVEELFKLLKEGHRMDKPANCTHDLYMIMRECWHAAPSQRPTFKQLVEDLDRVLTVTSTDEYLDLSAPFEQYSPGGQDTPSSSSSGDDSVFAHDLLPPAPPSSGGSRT

[13] = biological target: Serine/threonine-protein kinase haspin (Homo sapiens, UniProt Q8TF76); experiment: Inhibition of human recombinant Haspin (471 to end residues) using RARTLSFAEPG as substrate after 40 mins by [gamma-33ATP] radiometric assay
[14] = biological target: Homeodomain-interacting protein kinase 2 (Homo sapiens, UniProt Q9H2X6); experiment: Inhibition of human recombinant HIPK2 I471N mutant (165 to 564 residues) using myelin basic protein as substrate after 40 mins by [gamma-33ATP] radiometric assay
[15] = biological target: Tyrosine-protein kinase JAK3 (Homo sapiens, UniProt P52333); experiment: Inhibition of human recombinant JAK3 (781 to end residues) using GGEEEEYFELVKK as substrate after 40 mins by [gamma-33ATP] by radiometric scintillation counting analysis
[16] = biological target: Serine/threonine-protein kinase STK11 (Homo sapiens, UniProt Q15831); experiment: Inhibition of recombinant full length human LKB1 using LSNLYHQGKFLQT as substrate after 40 mins in presence of [gamma-33ATP] by radiometric scintillation counting analysis
Serine/threonine-protein kinase STK11, sequence (Q15831 whole entry): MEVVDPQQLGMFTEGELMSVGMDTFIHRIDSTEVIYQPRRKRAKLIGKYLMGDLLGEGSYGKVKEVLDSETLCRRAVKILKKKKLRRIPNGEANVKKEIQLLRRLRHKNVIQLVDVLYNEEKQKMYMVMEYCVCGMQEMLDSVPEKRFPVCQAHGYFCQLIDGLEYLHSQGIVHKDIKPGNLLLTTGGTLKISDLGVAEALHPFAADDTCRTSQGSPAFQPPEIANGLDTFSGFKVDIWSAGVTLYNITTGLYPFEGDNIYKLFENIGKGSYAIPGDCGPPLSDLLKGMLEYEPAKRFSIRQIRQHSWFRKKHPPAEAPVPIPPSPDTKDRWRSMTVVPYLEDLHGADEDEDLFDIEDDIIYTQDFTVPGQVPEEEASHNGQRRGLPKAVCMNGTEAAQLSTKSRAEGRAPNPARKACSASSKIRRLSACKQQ

[17] = biological target: Leukocyte tyrosine kinase receptor (Homo sapiens, UniProt P29376); experiment: Inhibition of recombinant human LTK (450 to end residues) using GEEPLYWSFPAKK as substrate after 40 mins in presence of [gamma-33ATP] by radiometric scintillation counting analysis
[18] = biological target: Serine/threonine-protein kinase PLK1 (Homo sapiens, UniProt P53350); experiment: Inhibition of recombinant full-length human Plk1 using casein as substrate incubated for 40 mins in presence of [gamma33P]ATP by radiometric scintillation counting analysis
[19] = biological target: cAMP-dependent protein kinase catalytic subunit PRKX (Homo sapiens, UniProt P51817); experiment: Inhibition of recombinant human full length PrKX using RRRLSFAEPG as substrate incubated for 40 mins in presence of [gamma33P]ATP by radiometric scintillation counting analysis
cAMP-dependent protein kinase catalytic subunit PRKX, sequence (P51817 whole entry, the tested form may be a part): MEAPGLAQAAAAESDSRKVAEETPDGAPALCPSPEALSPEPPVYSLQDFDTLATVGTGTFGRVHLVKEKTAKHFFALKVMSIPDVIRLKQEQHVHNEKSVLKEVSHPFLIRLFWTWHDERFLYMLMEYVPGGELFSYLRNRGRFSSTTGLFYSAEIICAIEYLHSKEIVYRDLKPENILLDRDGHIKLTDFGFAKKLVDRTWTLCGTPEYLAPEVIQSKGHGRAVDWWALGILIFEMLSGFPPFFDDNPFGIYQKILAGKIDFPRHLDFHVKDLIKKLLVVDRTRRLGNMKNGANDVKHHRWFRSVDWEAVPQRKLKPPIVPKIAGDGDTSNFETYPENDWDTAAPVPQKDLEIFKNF

[20] = biological target: Serine/threonine-protein kinase SIK1 (Homo sapiens, UniProt P57059); experiment: Inhibition of recombinant human SIK (1 to 281 residues) using AMARAASAAALARas substrate incubated for 40 mins in presence of [gamma33P]ATP by radiometric scintillation counting analysis
Serine/threonine-protein kinase SIK1, sequence (P57059 whole entry, the tested form may be a part): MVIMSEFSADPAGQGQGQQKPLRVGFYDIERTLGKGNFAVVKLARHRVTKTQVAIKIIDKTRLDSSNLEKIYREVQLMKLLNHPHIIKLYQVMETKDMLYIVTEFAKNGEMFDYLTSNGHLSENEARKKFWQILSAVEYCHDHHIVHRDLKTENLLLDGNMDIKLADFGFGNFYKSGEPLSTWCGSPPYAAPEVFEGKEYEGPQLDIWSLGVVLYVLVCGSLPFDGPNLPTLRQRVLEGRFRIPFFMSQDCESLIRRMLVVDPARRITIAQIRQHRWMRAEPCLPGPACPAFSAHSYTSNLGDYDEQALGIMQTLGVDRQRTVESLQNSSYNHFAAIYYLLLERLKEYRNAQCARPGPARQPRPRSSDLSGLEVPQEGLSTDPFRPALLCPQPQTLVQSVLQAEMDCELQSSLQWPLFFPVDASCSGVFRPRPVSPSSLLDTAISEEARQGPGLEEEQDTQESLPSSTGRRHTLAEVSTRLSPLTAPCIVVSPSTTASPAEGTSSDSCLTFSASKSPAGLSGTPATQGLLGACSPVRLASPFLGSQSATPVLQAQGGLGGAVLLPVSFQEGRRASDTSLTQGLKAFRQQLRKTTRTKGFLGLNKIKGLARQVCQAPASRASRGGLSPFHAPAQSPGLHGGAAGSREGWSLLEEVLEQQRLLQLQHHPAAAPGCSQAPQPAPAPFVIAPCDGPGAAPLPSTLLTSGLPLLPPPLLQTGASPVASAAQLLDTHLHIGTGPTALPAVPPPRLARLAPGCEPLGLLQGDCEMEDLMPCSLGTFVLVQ

[21] = biological target: Serine/threonine-protein kinase tousled-like 2 (Homo sapiens, UniProt Q86UE8); experiment: Inhibition of recombinant human TLK2 (387 to end residues) using casein as substrate incubated for 40 mins in presence of [gamma33P]ATP by radiometric scintillation counting analysis
[22] = biological target: NT-3 growth factor receptor (Homo sapiens, UniProt Q16288); experiment: Inhibition of recombinant human TRKC (510 to end residues) using GEEPLYWSFPAKK as substrate incubated for 40 mins in presence of [gamma33P]ATP by radiometric scintillation counting analysis
[23] = biological target: Mitogen-activated protein kinase kinase kinase 20 (Homo sapiens, UniProt Q9NYL2); experiment: Inhibition of recombinant full-length human ZAK using MBP as substrate incubated for 40 mins in presence of [gamma33P]ATP by radiometric scintillation counting analysis
[24] = biological target: PI3-kinase p110-alpha/p85-alpha (Homo sapiens, UniProt P42336, E545K); experiment: Inhibition of recombinant human full length PI3K p110alpha/p85alpha E545K mutant using phosphatidylinositol 4,5-bisphosphate as substrate incubated for 40 mins in presence of [gamma33P]ATP by radiometric scintillation counting analysis; assay type: protein-complex assay
PI3-kinase p110-alpha/p85-alpha, sequence (P42336 whole entry E545K, looked up): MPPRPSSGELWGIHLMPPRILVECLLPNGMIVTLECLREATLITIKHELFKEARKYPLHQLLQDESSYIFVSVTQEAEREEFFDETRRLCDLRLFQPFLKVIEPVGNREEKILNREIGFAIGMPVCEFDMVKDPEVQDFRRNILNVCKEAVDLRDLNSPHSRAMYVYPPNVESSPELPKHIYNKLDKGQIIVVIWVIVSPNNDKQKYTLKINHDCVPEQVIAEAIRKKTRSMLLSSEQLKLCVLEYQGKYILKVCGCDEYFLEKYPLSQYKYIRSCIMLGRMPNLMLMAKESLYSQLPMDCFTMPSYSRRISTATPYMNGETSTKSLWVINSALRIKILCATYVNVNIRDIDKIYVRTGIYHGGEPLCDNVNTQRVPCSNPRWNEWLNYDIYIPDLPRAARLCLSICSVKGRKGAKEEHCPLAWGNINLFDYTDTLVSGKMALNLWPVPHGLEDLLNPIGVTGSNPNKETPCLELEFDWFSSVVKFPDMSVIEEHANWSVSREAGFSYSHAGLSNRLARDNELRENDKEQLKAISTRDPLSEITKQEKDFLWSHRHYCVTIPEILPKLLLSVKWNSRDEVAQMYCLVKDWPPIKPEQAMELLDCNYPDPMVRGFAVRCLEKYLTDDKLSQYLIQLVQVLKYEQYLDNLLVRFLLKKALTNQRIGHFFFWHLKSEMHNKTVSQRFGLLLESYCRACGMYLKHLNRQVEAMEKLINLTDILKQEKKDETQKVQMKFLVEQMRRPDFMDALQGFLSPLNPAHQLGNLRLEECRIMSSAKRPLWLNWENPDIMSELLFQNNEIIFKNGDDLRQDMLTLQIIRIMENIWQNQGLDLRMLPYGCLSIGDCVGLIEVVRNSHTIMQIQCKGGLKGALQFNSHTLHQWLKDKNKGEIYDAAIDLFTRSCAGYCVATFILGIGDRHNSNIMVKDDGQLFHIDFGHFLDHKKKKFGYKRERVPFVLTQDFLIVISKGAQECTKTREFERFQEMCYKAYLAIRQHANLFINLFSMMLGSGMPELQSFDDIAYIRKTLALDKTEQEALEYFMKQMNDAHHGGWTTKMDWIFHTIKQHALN

Measured: IC50

CN(C)c1ccc(C(=O)Nc2cccc(NC(=O)COc3ccc4c(=O)ccoc4c3)c2)cc1
> 10 µM: [1] | [2] | [3] | [4] | [5] | [6] | FKBP12A/mTOR | [7] | [8] | [9] | [10] | [11] | [12] | [13] | [14] | [15] | [16] | [17] | [18] | [19] | [20] | [21] | [22] | [23] | [24]
